Results on 18 substances are retold here after the OligoGym collection.

HELM strings list units from the 5' end as sugar, base in round brackets, then linkage (d deoxyribose, r ribose, m 2'-O-methyl, p phosphodiester). Strings are as the collection lists them; they lack the last nucleoside at the 3' end of the tested compound. [moe] = 2'-O-(2-methoxyethyl) (MOE); [sp] = phosphorothioate linkage; [m5C] = 5-methylcytosine

The target of the data set is PRNP. Description: mouse, dose not given. The note with it: ASO.

“RNA1{[moe](T)[sp].[moe](G)p.[moe]([m5C])p.[moe](T)p.[moe](T)[sp].d(A)[sp].d(T)[sp].d(T)[sp].d(A)[sp].d(T)[sp].d(T)[sp].d([m5C])[sp].d(A)[sp].d(T)[sp].d(G)[sp].[moe](T)p.[moe](T)p.[moe]([m5C])[sp].[moe](T)}$$$$ (last 3' nucleoside missing)” yielded a 3 h FOB score of 0 score 0-7.
With “RNA1{[moe](A)[sp].[moe](A)p.[moe](T)p.[moe]([m5C])p.[moe](A)[sp].d(T)[sp].d(T)[sp].d([m5C])[sp].d(T)[sp].d(G)[sp].d(G)[sp].d(T)[sp].d(T)[sp].d(T)[sp].d([m5C])[sp].[moe]([m5C])p.[moe](A)p.[moe](G)[sp].[moe](G)}$$$$ (last 3' nucleoside missing)” the figure was 0.5 score 0-7.
Then “RNA1{[moe]([m5C])[sp].[moe](T)p.[moe]([m5C])p.[moe](T)p.[moe](A)[sp].d(T)[sp].d(G)[sp].d(T)[sp].d(T)[sp].d(T)[sp].d(T)[sp].d([m5C])[sp].d([m5C])[sp].[moe](A)p.[moe](G)p.[moe](T)[sp].[moe](G)}$$$$ (last 3' nucleoside missing)”, with 0.75 score 0-7.
“RNA1{[moe](A)[sp].[moe](T)p.[moe](G)p.[moe]([m5C])p.[moe]([m5C])[sp].d(A)[sp].d([m5C])[sp].d(A)[sp].d(T)[sp].d(A)[sp].d(T)[sp].d(A)[sp].d(G)[sp].d(G)[sp].d(G)[sp].[moe](T)p.[moe]([m5C])p.[moe]([m5C])[sp].[moe](T)}$$$$ (last 3' nucleoside missing)” yielded a 3 h FOB score of 3 score 0-7.
With “RNA1{[moe]([m5C])[sp].[moe](T)p.[moe](A)p.[moe](T)p.[moe](G)p.[moe](T)p.d(T)[sp].d(T)[sp].d(T)[sp].d([m5C])[sp].d([m5C])[sp].d(A)[sp].d(G)[sp].d(T)[sp].d(G)[sp].d([m5C])[sp].[moe]([m5C])p.[moe]([m5C])[sp].[moe](A)}$$$$ (last 3' nucleoside missing)” the figure was 3.75 score 0-7.
On to “RNA1{[moe](G)[sp].[moe]([m5C])p.[moe]([m5C])p.[moe](T)p.[moe](T)[sp].d(A)[sp].d(A)[sp].d(T)[sp].d(T)[sp].d(A)[sp].d([m5C])[sp].d([m5C])[sp].d(T)[sp].d(A)[sp].d(T)[sp].[moe](A)p.[moe](G)p.[moe](T)[sp].[moe](T)}$$$$ (last 3' nucleoside missing)”, for which the 3 h FOB score worked out at 1 score 0-7.
With “RNA1{[moe](T)[sp].[moe](G)p.[moe](T)p.[moe]([m5C])p.[moe](A)p.d(G)[sp].d(T)[sp].d(T)[sp].d(T)[sp].d(T)[sp].d(T)[sp].d([m5C])[sp].d([m5C])[sp].d([m5C])[sp].[moe]([m5C])[sp].[moe](A)p.[moe]([m5C])p.[moe](A)}$$$$ (last 3' nucleoside missing)” the figure was 0 score 0-7; with “RNA1{[moe](G)[sp].[moe](T)p.[moe]([m5C])p.[moe]([m5C])p.[moe](A)[sp].d(A)[sp].d(A)[sp].d(A)[sp].d(A)[sp].d(T)[sp].d(A)[sp].d(A)[sp].d(G)[sp].d(T)[sp].d([m5C])[sp].[moe]([m5C])p.[moe](A)p.[moe](G)[sp].[moe](A)}$$$$ (last 3' nucleoside missing)”, 1 score 0-7; with “RNA1{[moe](G)[sp].[moe](T)p.[moe](T)p.[moe]([m5C])p.[moe](A)[sp].d(G)[sp].d(A)[sp].d(G)[sp].d(A)[sp].d(A)[sp].d(T)[sp].d([m5C])[sp].d(T)[sp].d(T)[sp].d(T)[sp].[moe]([m5C])p.[moe](A)p.[moe]([m5C])[sp].[moe]([m5C])}$$$$ (last 3' nucleoside missing)”, 0 score 0-7.
On to “RNA1{[moe](G)[sp].[moe](A)p.[moe](G)p.[moe](T)p.[moe](G)[sp].d(A)[sp].d(A)[sp].d(T)[sp].d(T)[sp].d(A)[sp].d(T)[sp].d(T)[sp].d(T)[sp].d(T)[sp].d([m5C])[sp].[moe](T)p.[moe](T)p.[moe]([m5C])[sp].[moe](T)}$$$$ (last 3' nucleoside missing)”, for which the 3 h FOB score came out at 2 score 0-7.
Regarding “RNA1{[moe](G)[sp].[moe]([m5C])p.[moe]([m5C])p.[moe](A)p.[moe](A)[sp].d(T)[sp].d(A)[sp].d(A)[sp].d(T)[sp].d(A)[sp].d(A)[sp].d([m5C])[sp].d(A)[sp].d(T)[sp].d(T)[sp].[moe](G)p.[moe]([m5C])p.[moe](A)[sp].[moe](G)}$$$$ (last 3' nucleoside missing)”, the 3 h FOB score turned out to be 0 score 0-7.
With “RNA1{[moe]([m5C])[sp].[moe](G)p.[moe](T)p.[moe](T)p.[moe]([m5C])[sp].d(A)[sp].d(T)[sp].d([m5C])[sp].d(T)[sp].d(T)[sp].d(A)[sp].d(T)[sp].d(T)[sp].d([m5C])[sp].d([m5C])[sp].[moe]([m5C])p.[moe](A)p.[moe](T)[sp].[moe](T)}$$$$ (last 3' nucleoside missing)” the figure was 1 score 0-7; with “RNA1{[moe]([m5C])[sp].[moe](T)p.[moe](T)p.[moe](A)p.[moe](T)[sp].d(T)[sp].d(A)[sp].d(T)[sp].d(T)[sp].d([m5C])[sp].d(A)[sp].d(T)[sp].d(G)[sp].d(T)[sp].d(T)[sp].[moe]([m5C])p.[moe](T)p.[moe]([m5C])[sp].[moe]([m5C])}$$$$ (last 3' nucleoside missing)”, 1.25 score 0-7; with “RNA1{[moe](T)[sp].[moe](T)p.[moe]([m5C])p.[moe]([m5C])p.[moe](A)[sp].d(G)[sp].d([m5C])[sp].d(T)[sp].d(T)[sp].d([m5C])[sp].d(T)[sp].d(T)[sp].d(A)[sp].d(A)[sp].d(T)[sp].[moe](G)p.[moe]([m5C])p.[moe](A)[sp].[moe](T)}$$$$ (last 3' nucleoside missing)”, 0 score 0-7.
With “RNA1{[moe](T)[sp].[moe]([m5C])p.[moe](T)p.[moe]([m5C])p.[moe](A)[sp].d(G)[sp].d(G)[sp].d(T)[sp].d([m5C])[sp].d(T)[sp].d(A)[sp].d([m5C])[sp].d(T)[sp].d([m5C])[sp].d(T)[sp].[moe](A)p.[moe](T)p.[moe](G)[sp].[moe](T)}$$$$ (last 3' nucleoside missing)” the figure was 1.25 score 0-7; with “RNA1{[moe](G)[sp].[moe](G)p.[moe]([m5C])p.[moe](A)p.[moe]([m5C])[sp].d(T)[sp].d(T)[sp].d(T)[sp].d([m5C])[sp].d(T)[sp].d(T)[sp].d(T)[sp].d(T)[sp].d(T)[sp].d(A)[sp].[moe](T)p.[moe](T)p.[moe](T)[sp].[moe]([m5C])}$$$$ (last 3' nucleoside missing)”, 1 score 0-7.
With “RNA1{[moe]([m5C])[sp].[moe](T)p.[moe](T)p.[moe](A)p.[moe]([m5C])p.d(T)[sp].d([m5C])[sp].d(G)[sp].d(G)[sp].d([m5C])[sp].d(T)[sp].d(T)[sp].d(G)[sp].d(T)[sp].[moe](T)p.[moe]([m5C])p.[moe]([m5C])[sp].[moe](A)}$$$$ (last 3' nucleoside missing)”, the 3 h FOB score is 1.75 score 0-7.
With “RNA1{[moe](G)[sp].[moe](T)p.[moe](G)p.[moe](A)p.[moe](A)[sp].d(T)[sp].d(A)[sp].d(T)[sp].d(G)[sp].d(T)[sp].d([m5C])[sp].d([m5C])[sp].d(T)[sp].d([m5C])[sp].d(T)[sp].[moe](A)p.[moe](G)p.[moe]([m5C])[sp].[moe]([m5C])}$$$$ (last 3' nucleoside missing)” the figure was 2.5 score 0-7.
